Reference: patent US20030138380A1, “Gas emulsions stabilized with fluorinated ethers having low Ostwald coefficients” (priority 1995, published 2003)

Tests used:
rabbit carotid artery = assay: Pulsed Doppler Signal Enhancement Rabbit Model (carotid artery); format: in vivo; conditions: Powder D, osmotic agent in mixture with nitrogen, injected dose 0.2 ml (ca. 1 mg dry powder per kg)
Experimental: (§1) One ml of the resulting microbubble suspension was injected intravenously into an approximately 3 kg rabbit instrumented to monitor the Doppler ultrasound signal of its carotid artery. A 10 MHz flow cuff (Triton Technology Inc., San Diego, Calif.; model ES-10-20) connected to a System 6 Doppler flow module (Triton Technology Inc.) fed the RF Doppler signal to a LeCroy 9410 oscilloscope (LeCroy, Chestnut Ridge, N.Y.). The root mean square (RMS) voltage of the signal computed by the oscilloscope was transferred to a computer and the resultant curve fitted to obtain peak echogenic signal intensity and half-life of the microbubbles in blood. Signals before contrast were less than 0.1 volts RMS.
as §1, with “half-ife” for “half-life”
as §1, with “RF doppler” for “RF Doppler”, “obtain Peak” for “obtain peak”
100 mg samples of the spray-dried powder were placed in 10-ml vials and gassed by perfluoroether-air mixture repeated evacuation-gassing cycles with the help of a syringe needle equipped with a three-way valve. As the filling gases, perfluorodimethyl ether (85%, Exfluor Research, Austin, Tex.), perfluoro(methylethyl ether) (80%, Exfluor Research, Austin, Tex.), perfluoro(diethyl ether) (90%, Strem Chemicals, Newburyport, Mass.), n-perfluoropropane and n-perfluorobutane (97%, PCR Incorporated) were used. […] Their echogenic properties in vivo were evaluated using a Pulsed Doppler Signal Enhancement Rabbit Model as described in Example III.
After reconstituting the powder with 10 ml of water, the bubbles were formed. Their echogenic properties in vivo were evaluated using a Pulsed Doppler Signal Enhancement Rabbit Model, as described in Example III, with the difference that the injected dose was reduced to 0.2 ml (ca. 1 mg of dry powder per kg of rabbit). FIGS. 2a, 2b, and 2c compare the decay of ultrasound signal over time for different filling gases at close partial pressures. The data are arranged in pairs so that microbubble preparations comprising perfluoroethers (thick lines) are compared directly with their perfluorocarbon analogues (thin lines). From the graphs it is evident that perfluoroether-filled bubbles have a longer persistence in the bloodstream than their fluorocarbon analogues.

[1] = 25 degrees C.; literature, or if not there calculated with the model of Lawson et al.; cited from earlier work
pig heart = assay: Second harmonic ultrasound imaging of the heart, pig model; format: in vivo, pigs; conditions: Powder D with osmotic agent-N2 mixture, 0.5 mL infused over 1 min via jugular vein
Experimental: After reconstituting the powder with 10 ml of water, the bubbles were formed.
Anesthetized pigs (14-16 kg) were fitted with indwelling catheters in the femoral artery and femoral and jugular veins for hemodynamic monitoring and contrast agent administration. Parasternal short-axis cardiac images at the level of the papillary muscles were obtained using an HP Sonos 2500 Ultrasound machine. Images were acquired in the Second Harmonic mode with a wide bandwidth linear phased array probe emitting at 2 MHz and receiving at 4 MHz. Imaging was intermittent (gated), triggered at end-diastole of every cardiac cycle. 0.5 mnL of reconstituted contrast agent was diluted with 0.5 mL sterile saline and infused over 1 min via the jugular vein.
FIGS. 3, 4, and 5 show a time course of ultrasound images of the heart following intravenous administration of contrast agents. […] FIGS. 4 and 5 show ultrasound images of the same hearts one minute and six minutes after infusion with the respective contrast agents. FIGS. 3a, 4a, and 5a show the ultrasound images of the heart following intravenous administration of contrast agent stabilized by perfluoropolyether. FIGS. 3b, 4b, and 5b show the ultrasound images of the heart following intravenous administration of contrast agent stabilized by perfluorohexane.

[2] = 25 degrees C.; first four values, as reported by Wilhelm, Battino and Wilcock; cited from earlier work

Compound	Time of decay of the Doppler signal to baseline, s, at ρF = 0.13 ± 0.03 atm (rabbit carotid artery)	PF, sat9 atm (saturated vapor pressure) [1]	also measured
FC(F)(F)OC(F)(F)C(F)(F)OC(F)(F)C(F)(F)OC(F)(F)F [CF3O(CF2CF2O)2CF3, perfluorodiglyme]	>1800 s	0.20 atm	–
FC(F)(F)OC(F)(F)C(F)(F)OC(F)(F)C(F)(F)F [CF3OC2F4OC2F5]	–	0.55 atm	–
FC(F)(F)OC(F)(F)C(F)(F)OC(F)(F)F [CF3OC2F4OCF3, perfluoromonoglyme]	400 s	1.16 atm	–
FC(F)(F)OC(F)(F)F [CF3OCF3, perfluorodimethylether]	–	10.9 atm	–
FC(F)(F)OC(F)(F)OC(F)(F)OC(F)(F)OC(F)(F)F [CF3—(OCF2)3OCF3]	1200 s	–	contrast of the heart one minute after injection (pig heart): Substantial contrast of the heart; tissue contrast of the heart at six minutes (pig heart): still a great deal of tissue contrast
FC(F)(F)F [CF4]	–	159 atm	L × 10^6 (Ostwald coefficient) [2]: 5172
FS(F)(F)(F)(F)F [SF6]	–	23.5 atm	L × 10^6 (Ostwald coefficient) [2]: 5950
FC(F)(F)C(F)(F)OC(F)(F)C(F)(F)F [Sample C2F5OC2F5, perfluorodiethylether]	–	1.9 atm	–
FC(F)(F)C(F)(F)F [Sample C2F6, C2F6]	–	26.2 atm	–
FC(F)(F)C(F)(F)C(F)(F)OC(F)(F)C(F)(F)C(F)(F)F [Sample C3F7OC3F7, C3F7OC3F7]	–	0.30 atm	–
O=O [Sample O2, oxygen]	–	–	L × 10^6 (Ostwald coefficient) [2]: 31110
FC(F)(F)C(F)(F)C(F)(F)F [n-C3F8, n-perfluoropropane]	–	6.8 atm	–
FC(F)(F)C(F)(F)C(F)(F)C(F)(F)F [n-C4F10, perfluorobutane]	300 s	2.2 atm	–
FC(F)(F)C(F)(F)C(F)(F)C(F)(F)C(F)(F)F [n-C5F12, perfluoropentane]	400 s	0.84 atm	–
FC(F)(F)C(F)(F)C(F)(F)C(F)(F)C(F)(F)C(F)(F)F [n-C6F14, perfluorohexane]	600 s	0.27 atm	contrast of the heart one minute after injection (pig heart): Substantial contrast of the heart; tissue contrast of the heart at six minutes (pig heart): declined markedly
nitrogen [Sample N2]	–	–	L × 10^6 (Ostwald coefficient) [2]: 15880
